In PubChem BioAssay AID1919006 (Molecular Pharmacology Branch, DTP, NCI, 2023):
“And” between values parts separate entries of the source, which are not always exact repeats. Equal entries are not always repeated.

Test system: 885512-296-R-J2-PDC complex spheroid growth, % test/control
Test: Anticancer human tumor 885512-296-R-J2-PDC patient-derived breast carcinoma cell line growth inhibition [AhR]
Conditions: for viability, T/C: stronger effect = lower value
Source text: Multicellular complex tumor spheroid response to aryl hydrocarbon receptor antagonists in combination with a variety of drugs and investigational agents in selected tumor cell lines
The current study was undertaken to assess response to aryl hydrocarbon receptor antagonists in combination with standard-of-care drugs and investigational agents in solid tumor complex spheroid models. Complex spheroids include a stromal component modeled by human endothelial cells (HUVEC) and fibroblasts modeled by human mesenchymal stem cells (MSCs). The concentration ranges selected for each drug and investigational agent were based upon clinically achievable concentrations if the clinical Cmax of the agent was known.
Compounds. The drugs and investigational agents: BAY 2416964 (NSC825713), GNF351 (NSC835774), CH-223191 (NSC835775), CPI-455 (NSC825282), aza-TdCyd (NSC777586), decitabine (NSC127716), belinostat (NSC758774), entinostat (NSC756642), pevonedistat (NSC761192), tazemetostat (NSC777109), talazoparib (NSC765396), olaparib (NSC753686), selinexor (NSC780203), nedisertib (M3814, NSC802822), bortezomib (NSC756655), venetoclax (NSC766270), doxorubicin (NSC123127), elimusertib (BAY189344, NSC800525), ceralasertib (AZD6738, NSC777638), TAK-243 (NSC785004), alisertib (NSC759677), etoposide (NSC141540), topotecan (NSC609699), eribulin (NSC707389), gemcitabine (NSC613327), carboplatin (NSC241240), cisplatin (NSC119875), and SN-38 (NSC673596) were obtained from the National Cancer Institute (NCI) Developmental Therapeutics Program Chemical Repository (32). The FDA-approved anticancer drug set is available from the Developmental Therapeutics Program at https://dtp.cancer.gov/organization/dscb/obtaining/available plates.htm. […] The stock solutions were prepared in dimethyl sulfoxide (DMSO, Sigma-Aldrich, St. Louis, MO, cat. D2650), except for the platinum compounds which were prepared in saline (Quality Biological, Gaithersburg, MD, cat. 114-055-101), at 800-fold the tested concentration and stored at -70 degrees C prior to their use. All drugs and investigational agents were tested over a range starting from a high concentration at or near the clinical Cmax and decreasing in half-log increments. If the clinical Cmax for an agent had not been determined, the highest concentration tested was 10 microM (Table 1).
Cell Culture. All cells were maintained in an incubator at 37 degrees C and 5% CO2 with 95% humidity. The PDC lines were cultured according to standard operating procedures established by the NCI PDMR (https://pdmr.cancer.gov). Briefly, all PDCs were thawed and cultured in Matrigel-coated flasks prepared with a working solution of 1X Ham's F-12 nutrient mix, without supplementation (Invitrogen, Waltham, MA, cat. 11765054), 100 U/mL penicillin-streptomycin (Invitrogen, cat. 15140122), and 2.5% Matrigel (Corning Inc., Corning, NY, cat. 354248) for the first three passages. All PDCs were cultured in complete DMEM/F-12 media containing advanced DMEM/F-12 (Invitrogen, cat. 12634028), 4.9% defined fetal bovine serum, heat inactivated (HyClone Laboratories Inc., Logan, UT, cat. SH30070.03HI), 389 ng/mL hydrocortisone (Sigma-Aldrich, cat. H4001), 9.7 ng/mL human EGF recombinant protein (Invitrogen, cat. PHG0313), 23.4 microg/mL adenine (Sigma-Aldrich, cat. A2786), 97.3 U/mL penicillin-streptomycin (Invitrogen, cat. 15140122), 1.9 mM L-glutamine (Invitrogen, cat. 25030081), and 9.7 microM Y-27632 dihydrochloride (Tocris Bioscience, Bristol, United Kingdom, cat. 1254). The PDCs were cultured in complete DMEM/F12 media without 10 microM Y-27632 dihydrochloride for at least two passages prior to the screen. The established cell lines NCI-H1341 and […] were cultured in DMEM/F-12, HEPES (Invitrogen, cat. 11330032), 5% defined fetal bovine serum (HyClone Laboratories Inc., cat. SH30070.03), ITS premix universal culture supplement [insulin (5 microg/mL), transferrin (5 microg/mL), and selenious acid (5 ng/mL)] […]
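Further: spheroids exposed to compounds for seven days.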

SMILES | IC50 (curve of compound) | viability, T/C (compound 0.0316 µM) | viability, T/C (compound 0.1 µM) | viability, T/C (compound 0.316 µM) | viability, T/C (compound 1 µM) | viability, T/C (compound 3.16 µM) | viability, T/C (compound 10 µM) | other results
COc1cccc2c1C(=O)c1c(O)c3c(c(O)c1C2=O)CC(O)(C(=O)CO)CC3OC1CC(N)C(O)C(C)O1 (stereo not given) | < 31.6 nM | 22.1% and 16.4% and 24.6% | 20.5% and 11.7% and 14.2% | 8.97% and 3.94% and 5.3% | 0.67% and 0.49% and 0.27% | 1.99% and 1.41% and 0.92% | 1.58% and 1.1% and 0.8% | –
Cc1ccccc1N=Nc1ccc(NC(=O)c2ccnn2C)c(C)c1 | – | – | – | – | – | – | 53.1% [middle of 21 runs] | –
Cc1cncc(-c2nc(NCCc3c[nH]c4ccccc34)c3ncn(C(C)C)c3n2)c1 | – | – | 105% [middle of 20 runs] | – | – | 60% [middle of 20 runs] | 19.6% [middle of 20 runs] | IC50 (compound alone, run of 08/16/2022): 4.14 µM [middle of 24 runs]
Nc1ccn(C2OC(CO)C(O)C2(F)F)c(=O)n1 (stereo not given) | < 31.6 nM | 3% and 2.24% and 2.66% | 3.22% and 2.41% and 2.65% | 3.38% and 3.96% and 3.68% | 3.04% and 4.06% and 3.38% | 3.46% and 3.77% and 3.42% | 3.08% and 3.9% and 2.46% | –
Nc1ncn(C2CC(O)C(CO)O2)c(=O)n1 (stereo not given) | 670 nM and 776 nM and 697 nM | 98.7% and 97.9% and 108% | 82.1% and 86% and 107% | 65.7% and 74.5% and 72% | 41.9% and 42.8% and 39.9% | – | – | viability, T/C (compound 0.00316 µM): 90.1% and 103% and 107%; viability, T/C (compound 0.01 µM): 89.7% and 93.7% and 117%
Nc1ncn(C2CC(O)C(CO)S2)c(=O)n1 (stereo not given) | 129 nM and 160 nM and 239 nM | – | – | – | – | – | – | viability, T/C (compound 0.000949 µM): 109% and 103% and 93%; viability, T/C (compound 0.003 µM): 93.6% and 108% and 103%; viability, T/C (compound 0.00949 µM): 96.9% and 120% and 104%; viability, T/C (compound 0.03 µM): 89.1% and 99.3% and 116%; viability, T/C (compound 0.0949 µM): 56.2% and 61.2% and 75.9%; viability, T/C (compound 0.3 µM): 31.1% and 37% and 43.6%
O=C(c1cc(Cc2n[nH]c(=O)c3ccccc23)ccc1F)N1CCN(C(=O)C2CC2)CC1 | 8010 nM and 5700 nM and 6980 nM | 101% and 131% and 106% | 109% and 125% and 105% | 133% and 134% and 148% | 141% and 121% and 151% | 113% and 81.3% and 93.8% | 34.5% and 20.2% and 30.2% | –

Now from value to molecule, other results behind:

IC50 (curve of compound) | SMILES | viability, T/C (compound 0.0316 µM) | viability, T/C (compound 0.1 µM) | viability, T/C (compound 0.316 µM) | viability, T/C (compound 1 µM) | viability, T/C (compound 3.16 µM) | viability, T/C (compound 10 µM) | other results
> 100 nM | Cn1ncnc1C1c2n[nH]c(=O)c3cc(F)cc(c23)NC1c1ccc(F)cc1 (stereo not given) | 79.9% and 75.4% and 87.3% | 58% and 57% and 53.9% | – | – | – | – | viability, T/C (compound 0.000316 µM): 96.9% and 103% and 101%; viability, T/C (compound 0.001 µM): 88.9% and 93.1% and 107%; viability, T/C (compound 0.00316 µM): 90.6% and 91.2% and 108%; viability, T/C (compound 0.01 µM): 88.6% and 93.7% and 89%
88.4 nM and 90.3 nM and 93 nM | NS(=O)(=O)OCC1CC(n2ccc3c(NC4CCc5ccccc54)ncnc32)CC1O (stereo not given) | 87% and 90.8% and 96.4% | 45.5% and 46.1% and 46.9% | 13.6% and 12.9% and 16% | 6.2% and 6.25% and 7.3% | 5.6% and 5% and 5.76% | 4.67% and 3.65% and 5.16% | –
920 nM and 758 nM and 747 nM | Nc1ccccc1NC(=O)c1ccc(CNC(=O)OCc2cccnc2)cc1 | 79.7% and 97% and 82.8% | 86.1% and 81.5% and 74.1% | 67.5% and 63.9% and 58.3% | 48.1% (2×) and 46.7% | 25.6% and 24.4% and 32.2% | 10.4% and 10.3% (2×) | –
725 nM and 670 nM and 991 nM | O=C(C=Cc1cccc(S(=O)(=O)Nc2ccccc2)c1)NO | 90.3% and 90% and 85.2% | 86.3% and 84.5% and 83.5% | 59.8% and 62.8% and 69.6% | 45.6% and 39% and 44.7% | 26.5% and 27.6% and 33.8% | 10.4% and 6.72% and 10.9% | –
75.3 nM and 68.3 nM and 67.1 nM | O=C(C=Cn1cnc(-c2cc(C(F)(F)F)cc(C(F)(F)F)c2)n1)NNc1cnccn1 | – | – | – | – | – | – | viability, T/C (compound 0.00949 µM): 95.6% and 113% and 96.3%; viability, T/C (compound 0.03 µM): 100% and 113% and 117%; viability, T/C (compound 0.0949 µM): 38% and 25% and 25.8%; viability, T/C (compound 0.3 µM): 5.56% and 4.15% and 4.46%; viability, T/C (compound 0.949 µM): 2.2% and 1.47% and 2.93%; viability, T/C (compound 3 µM): 1.21% and 0.91% and 1.13%
